# Experimental data published in US20260184687A1, “DIHYDROINDENE DERIVATIVES AS MALT1 INHIBITORS” (C4X Discovery Limited, priority 2022, published 2026).
# Assays:
# [1] = test system: IL-2 release from stimulated Jurkat cells; assay: Human IL-2 Release Phenotypic Assay (Assay 3); type: cell-based; conditions: Jurkat cells (clone E6-1), 200 ng/mL PMA + 300 ng/mL ionomycin, IL-2 by ELISA
# Procedure, shortened: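 IC50 values were fitted by 4-parameter non-linear regression to IL-2 release from Jurkat E6-1 cells. Those cells were stimulated for 48 h with PMA (200 ng/mL) plus ionomycin (300 ng/mL) after a 30-min compound pre-incubation at half-log doses in 0.5% DMSO. Cells had been plated at 50 000/well overnight at 37° C.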
# [2] = target: MALT1-GS-Ub (6-His-hMALT-1 residues 339-715 fused to ubiquitin) (Homo sapiens, UniProt Q9UDY8); assay: biochemical;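 further: in vitro MALT1 protease assay: enzyme preincubated with compound 30 min at room temperature, then cleavage of fluorogenic Ac-LVSR-AMC substrate (100 µM) followed by fluorescence every 15 min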
# FL hMALT1 enzyme = target: T1, FL hMALT1 enzyme (Homo sapiens, UniProt Q9UDY8); assay: biochemical;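 further: Cell-free protease assay: enzyme preincubated with compound 30 min at room temperature, then cleavage of fluorogenic Ac-LVSR-AMC substrate (100 µM) tracked by fluorescence (ex 360/em 460 nm)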
# T1 sequence (Q9UDY8 1-824): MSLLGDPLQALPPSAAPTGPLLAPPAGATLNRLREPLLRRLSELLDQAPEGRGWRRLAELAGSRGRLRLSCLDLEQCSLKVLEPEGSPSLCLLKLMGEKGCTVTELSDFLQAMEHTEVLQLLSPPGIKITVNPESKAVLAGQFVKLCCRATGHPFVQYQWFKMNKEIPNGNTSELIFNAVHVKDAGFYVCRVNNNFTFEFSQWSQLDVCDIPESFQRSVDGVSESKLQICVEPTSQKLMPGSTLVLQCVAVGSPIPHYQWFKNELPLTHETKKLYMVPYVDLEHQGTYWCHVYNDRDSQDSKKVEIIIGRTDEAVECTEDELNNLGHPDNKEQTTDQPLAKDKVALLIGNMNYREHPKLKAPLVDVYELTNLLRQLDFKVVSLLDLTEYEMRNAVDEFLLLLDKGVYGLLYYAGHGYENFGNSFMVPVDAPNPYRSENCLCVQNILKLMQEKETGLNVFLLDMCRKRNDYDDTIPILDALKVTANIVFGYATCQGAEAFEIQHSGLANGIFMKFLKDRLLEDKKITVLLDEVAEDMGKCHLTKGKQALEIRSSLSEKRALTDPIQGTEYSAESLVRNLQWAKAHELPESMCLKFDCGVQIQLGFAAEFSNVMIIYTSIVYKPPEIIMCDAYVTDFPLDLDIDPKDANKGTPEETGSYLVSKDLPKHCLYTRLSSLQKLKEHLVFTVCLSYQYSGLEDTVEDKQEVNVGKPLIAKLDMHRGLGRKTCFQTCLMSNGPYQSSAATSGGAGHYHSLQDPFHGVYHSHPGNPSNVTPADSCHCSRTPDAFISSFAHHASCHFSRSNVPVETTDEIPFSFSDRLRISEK
# Method: MALT1 protease activity was assessed in vitro by measuring the cleavage of a fluorogenic tetrapeptide substrate.
# For a higher sensitivity assay, commercially available FL hMALT1 enzyme (Abcam, 1-10 nM) was incubated with substrate (Ac-LVSR-AMC, 100 μM) in reaction buffer comprising 50 mM HEPES (pH7.0), 25 mM KCl, 0.1% (v/v) CHAPS, 1 mM TCEP and 0.7 M sodium citrate.
# Test compounds dissolved in DMSO were dispensed into assay plates (384-well, black, shallow ProxiPlates). 7 μl enzyme solution was added and incubated at room temperature for 30 minutes to allow compound binding to occur. 2 μl substrate solution was then added and the fluorescence (excitation 360 nm, emission 460 nm) read every 15 minutes using a suitable plate reader. Final assay DMSO concentration was 1%. […] IC50 values were calculated using GraphPad Prism using a 4-parameter non-linear regression curve fit.
# MALT1-GS-Ub (6-His-hMALT-1 residues 339-715 fused to ubiquitin), sequence (Q9UDY8 with tags, fused parts or gaps limits assumed): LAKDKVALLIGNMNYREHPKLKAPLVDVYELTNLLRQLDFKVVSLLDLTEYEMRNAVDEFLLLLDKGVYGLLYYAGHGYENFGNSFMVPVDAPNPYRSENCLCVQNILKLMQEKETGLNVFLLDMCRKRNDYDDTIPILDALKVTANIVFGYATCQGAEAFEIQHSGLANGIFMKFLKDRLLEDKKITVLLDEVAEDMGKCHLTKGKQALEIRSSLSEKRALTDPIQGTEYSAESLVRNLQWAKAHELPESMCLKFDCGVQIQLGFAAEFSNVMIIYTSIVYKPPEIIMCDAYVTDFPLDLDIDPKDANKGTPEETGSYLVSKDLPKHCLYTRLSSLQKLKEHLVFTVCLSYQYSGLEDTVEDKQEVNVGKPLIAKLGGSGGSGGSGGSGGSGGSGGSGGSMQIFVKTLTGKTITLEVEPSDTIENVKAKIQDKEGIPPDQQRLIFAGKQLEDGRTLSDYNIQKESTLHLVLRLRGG
SMILES,IC50 ([1]; 48 hours),IC50 [2],IC50 (FL hMALT1 enzyme),"IC50 ([1]; Homo sapiens, Jurkat, 48 h)"
"CC(=O)N1CC(C(=O)N(C)[C@@H](c2ccc(NC3Cc4ccccc4C3(C)C)cc2)C(F)(F)F)C1 (single isomer, unassigned) [Example 7]",820 nM,190 nM,68 nM,
"COC1c2ccccc2CC1Nc1ccc([C@H](N(C)C(=O)C2CCS(=O)(=O)CC2)C(F)(F)F)cc1 (single isomer, unassigned) [Example 10]",,540 nM,120 nM,1550 nM
"CN(C(=O)N1CCOCC1)[C@@H](c1ccc(N[C@H]2Cc3ccccc3C2(C)C)cc1)C(F)(F)F (single isomer, unassigned) [Example 12]",,180 nM,290 nM,490 nM
"CN(C(=O)N1CCOCC1)[C@@H](c1ccc(N[C@@H]2Cc3ccccc3C2(C)C)cc1)C(F)(F)F (single isomer, unassigned) [Example 13]",,400 nM,400 nM,1930 nM
"CN(C(=O)N1CCS(=O)(=O)CC1)[C@@H](c1ccc(NC2Cc3ccccc3C2(C)C)cc1)C(F)(F)F (single isomer, unassigned) [Example 14]",320 nM,220 nM,110 nM,
"CN(C(=O)N1CCS(=O)(=O)CC1)[C@@H](c1ccc(NC2Cc3ccccc3C2(C)C)cc1)C(F)(F)F (single isomer, unassigned) [Example 15]",3100 nM,290 nM,420 nM,
"CN(C(=O)C1CCOCC1)[C@@H](c1ccc(NC2Cc3ccccc3C2(C)C)cc1)C(F)(F)F (single isomer, unassigned) [Example 18]",520 nM,330 nM,120 nM,
"CN(C(=O)C1CCOCC1)[C@@H](c1ccc(NC2Cc3ccccc3C2(C)C)cc1)C(F)(F)F (single isomer, unassigned) [Example 19]",110 nM,170 nM,30 nM,
"CN(C(=O)c1cc[nH]c(=O)c1)[C@@H](c1ccc(NC2Cc3ccccc3C2(C)C)cc1)C(F)(F)F (single isomer, unassigned) [Example 20]",,210 nM,240 nM,510 nM
"CN(C(=O)c1cc[nH]c(=O)c1)[C@@H](c1ccc(NC2Cc3ccccc3C2(C)C)cc1)C(F)(F)F (single isomer, unassigned) [Example 21]",260 nM,200 nM,62 nM,
"CN(C(=O)N1CCC(O)CC1)[C@@H](c1ccc(NC2Cc3ccccc3C2(C)C)cc1)C(F)(F)F (single isomer, unassigned) [Example 22]",,290 nM,450 nM,1730 nM
"CN(C(=O)N1CCC(O)CC1)[C@@H](c1ccc(NC2Cc3ccccc3C2(C)C)cc1)C(F)(F)F (single isomer, unassigned) [Example 23]",1080 nM,390 nM,330 nM,
"CC(=O)NCCC(=O)N(C)[C@@H](c1ccc(NC2Cc3ccccc3C2(C)C)cc1)C(F)(F)F (single isomer, unassigned) [Example 24]",870 nM,160 nM,89 nM,
"CN(C(=O)c1cocn1)[C@@H](c1ccc(NC2Cc3ccccc3C2(C)C)cc1)C(F)(F)F (single isomer, unassigned) [Example 26]",910 nM,360 nM,700 nM,
"CN(C(=O)c1cocn1)[C@@H](c1ccc(NC2Cc3ccccc3C2(C)C)cc1)C(F)(F)F (single isomer, unassigned) [Example 27]",400 nM,190 nM,180 nM,
"COCC(=O)N(C)[C@@H](c1ccc(NC2Cc3ccccc3C2(C)C)cc1)C(F)(F)F (single isomer, unassigned) [Example 28]",2610 nM,290 nM,200 nM,
"COCC(=O)N(C)[C@@H](c1ccc(NC2Cc3ccccc3C2(C)C)cc1)C(F)(F)F (single isomer, unassigned) [Example 29]",690 nM,160 nM,14 nM,
"CN(C(=O)CO)[C@@H](c1ccc(NC2Cc3ccccc3C2(C)C)cc1)C(F)(F)F (single isomer, unassigned) [Example 31]",,130 nM,50 nM,1190 nM

SMILES,IC50 ([1]; 48 hours),IC50 [2],IC50 (FL hMALT1 enzyme),"IC50 ([1]; Homo sapiens, Jurkat, 48 h)"
"COCCC(=O)N(C)[C@@H](c1ccc(NC2Cc3ccccc3C2(C)C)cc1)C(F)(F)F (single isomer, unassigned) [Example 32]",5680 nM,200 nM,130 nM,
"COCCC(=O)N(C)[C@@H](c1ccc(NC2Cc3ccccc3C2(C)C)cc1)C(F)(F)F (single isomer, unassigned) [Example 33]",2480 nM,360 nM,260 nM,
"CN(C(=O)CCO)[C@@H](c1ccc(NC2Cc3ccccc3C2(C)C)cc1)C(F)(F)F (single isomer, unassigned) [Example 34]",,170 nM,85 nM,4980 nM
"CN(C(=O)CCO)[C@@H](c1ccc(NC2Cc3ccccc3C2(C)C)cc1)C(F)(F)F (single isomer, unassigned) [Example 35]",3760 nM,290 nM,27 nM,
"CN(C(=O)C1CCS(=O)(=O)CC1)[C@@H](c1ccc(NC2Cc3ccccc3C2(C)C)nc1)C(F)(F)F (single isomer, unassigned) [Example 36]",1160 nM,380 nM,39 nM,
"CC(=O)NCC(=O)N(C)[C@@H](c1ccc(NC2Cc3ccccc3C2(C)C)cc1)C(F)(F)F (single isomer, unassigned) [Example 39]",3590 nM,240 nM,170 nM,
"CC(=O)NCC(=O)N(C)[C@@H](c1ccc(NC2Cc3ccccc3C2(C)C)cc1)C(F)(F)F (single isomer, unassigned) [Example 40]",1350 nM,230 nM,77 nM,
"CC(=O)N1CC(C)(C(=O)N(C)[C@@H](c2ccc(NC3Cc4ccccc4C3(C)C)cc2)C(F)(F)F)C1 (single isomer, unassigned) [Example 41]",,220 nM,19 nM,1040 nM
"CC(=O)N1CC(C)(C(=O)N(C)[C@@H](c2ccc(NC3Cc4ccccc4C3(C)C)cc2)C(F)(F)F)C1 (single isomer, unassigned) [Example 42]",1600 nM,160 nM,35 nM,
"CC(=O)N1CC(F)(C(=O)N(C)[C@@H](c2ccc(NC3Cc4ccccc4C3(C)C)cc2)C(F)(F)F)C1 (single isomer, unassigned) [Example 43]",4040 nM,150 nM,62 nM,
"CC(=O)N1CC(F)(C(=O)N(C)[C@@H](c2ccc(NC3Cc4ccccc4C3(C)C)cc2)C(F)(F)F)C1 (single isomer, unassigned) [Example 44]",770 nM,180 nM,21 nM,
"CN(C(=O)CN1CCCC1=O)[C@@H](c1ccc(NC2Cc3ccccc3C2(C)C)cc1)C(F)(F)F (single isomer, unassigned) [Example 45]",,240 nM,180 nM,730 nM
"CN(C(=O)CN1CCCC1=O)[C@@H](c1ccc(NC2Cc3ccccc3C2(C)C)cc1)C(F)(F)F (single isomer, unassigned) [Example 46]",440 nM,250 nM,66 nM,
"CN(C(=O)CCN1CCCC1=O)[C@@H](c1ccc(NC2Cc3ccccc3C2(C)C)cc1)C(F)(F)F (single isomer, unassigned) [Example 47]",2350 nM,170 nM,110 nM,
"CN(C(=O)CCN1CCCC1=O)[C@@H](c1ccc(NC2Cc3ccccc3C2(C)C)cc1)C(F)(F)F (single isomer, unassigned) [Example 48]",1160 nM,140 nM,17 nM,
"CN(C(=O)C1CCS(=O)(=O)CC1)[C@@H](c1ccc(NC2Cc3ccc(Cl)cc3C2)cc1)C(F)(F)F (single isomer, unassigned) [Example 55]",4570 nM,520 nM,220 nM,
"CN(C(=O)C1CCS(=O)(=O)CC1)[C@@H](c1ccc(NC2Cc3ccc(Cl)cc3C2)cc1)C(F)(F)F (single isomer, unassigned) [Example 56]",93 nM,150 nM,14 nM,
"CC(=O)N1CC(OC(=O)N(C)[C@@H](c2ccc(NC3Cc4ccccc4C3(C)C)cc2)C(F)(F)F)C1 (single isomer, unassigned) [Example 57]",3690 nM,160 nM,91 nM,
